Holding throughout (format): in vivo, Crj:Wistar rat (male)
Test [1] has as its system gastric juice secretion. The test is described as follows: Anti-gastric juice secretion test, intraduodenal administration (pylorus ligation). To be noted: 100 mg/kg intraduodenal, 4 h after pylorus ligation; for pH of gastric juice: control 1.7; for Amount of gastric juice: control 2.6; for Free hydrochloric acid: control 116; for Total acidity: control 168. The procedure:
Each 100 mg/kg of the test compounds was administered duodenally to a male Crj:Wistar rat of 205 to 240 g body weight fasted for ca. 24 hours (7 to 8 rats per group) and immediately after the dose the pylorus was ligated under diethyl ether anesthesia. Four hours after the ligation, the animal was killed and the stomach was isolated and the amount and the pH of gastric juice and free hydrochloric acid contained in it and the total acidity of it were measured to examine the effect of inhibiting gastric juice secretion. The test compounds were dosed after dissolved in physiological saline or in physiological saline containing Tween 80 added. Five […] of physiological saline was administered to the control group.

Test [2] concerns water immersion restriction stress ulcer. The test is described as follows: Water immersion restriction stress ulcer, oral administration. To be noted: for Gastric damage index: 30 min before 6 h water immersion stress, control 15.7; for inhibition in vivo at 100 mg/kg: Rattus norvegicus, 6 h, read-out: Inhibition rate. The procedure: (§1) After the stress loading, the animal was killed by exsanguination and the cardia part of stomach was ligated and then 10 ml of 1% formalin was poured into the stomach and the stomach was extirpated. […] 0.5 ml/body weight of 1% pontamine sky blue physiological saline was injected intravenously 10 minutes before the slaughter. The test compound was administered after dissolved in physiological saline or in physiological saline containing Tween 80 added. Five […] of physiological saline was administered to the control group.

Test [3] relates to aspirin ulcer. The test is described as follows: Anti-aspirin ulcer test, oral administration. To be noted: 100 mg/kg oral, 6 h; for Gastric damage index: 30 min before aspirin 200 mg/kg oral, control 76.0; for inhibition in vivo at 100 mg/kg: Rattus norvegicus, gastric damage index vs control, aspirin 200 mg/kg, read-out: Inhibition rate. As for the experimental part:
(§2) Each 100 mg/kg of the test compounds was administered orally to a male Crj:Wistar rat of 198 to 243 g body weight fasted for ca. 24 hours (7 to 8 rats per group) and 30 minutes after the administration 200 mg/5 ml/kg of aspirin suspended in 0.5% sodium CMC aqueous solution was administered orally. Six hours later the animals was killed by exsanguination and the cardia part of stomach was ligated and 10 ml of 1% formaline solution was poured into the stomach and the stomach was extirpated. Then, it was incised along the greater curvature side and washed with physiological saline and the major axis of the spotted and linear erosion and ulcer were measured under a steromicroscope and their total sum per head was calculated as the gastric damage index (mm) and the effect was judged by the inhibiting rate against the control group [(Gastric damage index of the control group-Gastric damage index of the test compound)/Gastric damage index of the control group×100]. 0.5 ml/body weight of 1% pontamine sky blue physiological saline was injected intravenously 10 minutes before the slaughter. The test compound was administered after dissolved in physiological saline or in physiological saline containing Tween 80 added. Five […] of physiological saline was administered to the control group.

The test system of test [4] is aspirin ulcer. The test is described as follows: Anti-aspirin ulcer test, intraperitoneal administration. The procedure: as §2
Each 100 mg/kg of the test compound was abdominally injected to a male Crj:Wistar rat of 210 to 265 g body weight fasted for ca. 24 hours (7 to 8 rats per group) and the procedures were carried out in a same manner as in oral administration.

In test [5] the test system is water immersion restriction stress ulcer. The test is described as follows: Water immersion restriction stress ulcer, intraperitoneal administration. To be noted: 100 mg/kg intraperitoneal. As for the experimental part:
as §1

Test [6] deals with gastric juice secretion. The test is described as follows: Anti-gastric juice secretion test, intraperitoneal administration (pylorus ligation). The settings on record: 100 mg/kg intraperitoneal, 30 min before pylorus ligation.
The mark [7] stands for this setting: gastric damage index vs control, 100 mg/kg oral, water immersion stress.

Like-named read-outs stand apart in the source and are kept apart here.

With `O=S(=O)(NC(Cc1ccc(O)cc1)CN1CCN(c2ccccc2)CC1)c1cccc2cnccc12` (stereo not shown) [(1), N-[1-(p-hydroxybenzyl)-2-(4-phenylpiperazinyl)ethyl]-5-isoquinoline sulfonamide], in test [1], the “pH of gastric juice” value was found to be 2.0, the “Amount of gastric juice” value is listed as 2.2 ml/100 g body weight, the Free hydrochloric acid is 36 μEq/100 g body weight and the Total acidity stood at 71 μEq/100 g body weight. The compound further gave a Gastric damage index in test [2] (100 mg/kg oral) of 10.5 mm. The inhibition in vivo at 100 mg/kg in test [2] (setting [7]) amounted to 33%. Besides, in test [3], the Gastric damage index was 40.1 mm and the inhibition in vivo at 100 mg/kg amounted to 47%.
With `CN(C(Cc1ccc(O)cc1)CN1CCN(c2cccc(Cl)c2)CC1)S(=O)(=O)c1cccc2cnccc12` (stereo not shown) [(2), N-{2-[4-(m-chlorophenyl)piperazinyl]-1-(p-hydroxybenzyl)ethyl}-N-methyl-5-isoquinoline sulfonamide], in test [1], the “pH of gastric juice” value is on record as 2.1, the “Amount of gastric juice” value was determined as 2.1 ml/100 g body weight, the Free hydrochloric acid was 40 μEq/100 g body weight and the Total acidity is 92 μEq/100 g body weight. Besides, the Gastric damage index in test [2] (100 mg/kg oral) was 9.7 mm. The inhibition in vivo at 100 mg/kg in test [2] (setting [7]) was determined as 38%. Further, in test [3], the Gastric damage index is 40.3 mm and the inhibition in vivo at 100 mg/kg was found to be 46%.
In the case of `O=S(=O)(NC(Cc1ccc(OS(=O)(=O)c2cccc3cnccc23)cc1)CN1CCN(c2ccc(F)cc2)CC1)c1cccc2cnccc12` (stereo not shown) [(3), N-{2-[4-(p-fluorophenyl)piperazinyl]-1-(p-(5-isoquinolinesulfonyloxy)benzyl]ethyl}-5-isoquinoline sulfonamide], in test [1], the “pH of gastric juice” value is on record as 1.8, the “Amount of gastric juice” value is 2.5 ml/100 g body weight, the Free hydrochloric acid is 82 μEq/100 g body weight and the Total acidity came to 140 μEq/100 g body weight. This compound yielded a Gastric damage index in test [2] (100 mg/kg oral) of 11.2 mm. Further, the inhibition in vivo at 100 mg/kg in test [2] (setting [7]) came to 29%. In test [3], the Gastric damage index was 56.7 mm and the inhibition in vivo at 100 mg/kg was determined as 25%.
In the case of `O=S(=O)(NC(Cc1ccc(O)cc1)CN1CCCN(c2ccccc2)CC1)c1cccc2cnccc12` (stereo not shown) [(6), N-[1-(p-hydroxybenzyl)-2-(4-phenylhomopiperazinyl)ethyl]-5-isoquinolinesulfonamide], in test [1], the “pH of gastric juice” value turned out to be 1.8, the “Amount of gastric juice” value is 2.3 ml/100 g body weight, the Free hydrochloric acid stood at 53 μEq/100 g body weight and the Total acidity was 87 μEq/100 g body weight. Further, in test [2] (100 mg/kg oral), the Gastric damage index is listed as 12.2 mm. The inhibition in vivo at 100 mg/kg in test [2] (setting [7]) was 22%. Moreover, in test [3], the Gastric damage index was 52.9 mm and the inhibition in vivo at 100 mg/kg is 30%.
With `O=S(=O)(NC(Cc1ccc(O)cc1)CN1CCC(OCc2ccc(Cl)c(Cl)c2)CC1)c1cccc2cnccc12` (stereo not shown) [(7), N-{1-(p-hydroxybenzyl)-2-[4-(3,4-dichlorobenzyloxy)piperidino]ethyl}-5-isoquinoline sulfonamide], the Gastric damage index in test [4] (100 mg/kg intraperitoneal (abdominally injected), control 58.8) stood at 15.3 mm; in test [5] (control 22.7), 7.0 mm; in test [2] (100 mg/kg oral) it was 5.4 mm; in test [3] it was 26.9 mm. The Inhibition rate in test [4] (gastric damage index vs control, 100 mg/kg intraperitoneal) amounted to 74%; in test [5] (gastric damage index vs control) it was 69%. The results for the “pH of gastric juice” value in test [1] and in test [6] (control 1.7) were 2.5 and 2.6, respectively. Further, the “Amount of gastric juice” value is 1.2 ml/100 g body weight in test [1] and 1.5 ml/100 g body weight in test [6] (control 3.2). For the same compound, the Free hydrochloric acid came to 26 μEq/100 g body weight in test [1] and 32 μEq/100 body weight in test [6] (control 155). Moreover, the values for the Total acidity in test [1] and in test [6] (control 208) were 63 μEq/100 g body weight and 71 μEq/100 body weight, respectively. The inhibition in vivo at 100 mg/kg in test [2] (setting [7]) came to 66%; in test [3] it was 65%.
Take `CN(C(Cc1ccc(O)cc1)CN1CCC(OCc2ccc(Cl)c(Cl)c2)CC1)S(=O)(=O)c1cccc2cnccc12` (stereo not shown) [(8), N-{1-(p-hydroxybenzyl)-2-[4-(3,4-dichlorobenzyloxy)piperidino]ethyl}-N-methyl-5-isoquinoline sulfonamide]: in test [1], the “pH of gastric juice” value is recorded as 2.3, the “Amount of gastric juice” value is given as 1.6 ml/100 g body weight, the Free hydrochloric acid worked out at 32 μEq/100 g body weight and the Total acidity turned out to be 68 μEq/100 g body weight. Besides, in test [2] (100 mg/kg oral), the Gastric damage index stood at 6.5 mm. In addition, the inhibition in vivo at 100 mg/kg in test [2] (po) was found to be 59%. In test [3], the Gastric damage index was found to be 28.9 mm and the inhibition in vivo at 100 mg/kg was 62%.
Turning to `COc1ccc(CC(CN2CCC(OCc3ccc(Cl)c(Cl)c3)CC2)N(C)S(=O)(=O)c2cccc3cnccc23)cc1` (stereo not shown) [(9), N-{1-(p-methoxybenzyl)-2-[4-(3,4-dichlorobenzyloxy)piperidino]ethyl}-N-methyl-5-isoquinoline sulfonamide], in test [1], the “pH of gastric juice” value is on record as 2.1, the “Amount of gastric juice” value was 2.2 ml/100 g body weight, the Free hydrochloric acid was found to be 44 μEq/100 g body weight and the Total acidity is listed as 89 μEq/100 g body weight. The Gastric damage index in test [2] (100 mg/kg oral) came out at 9.7 mm. Further, the inhibition in vivo at 100 mg/kg in test [2] (setting [7]) came out at 38%. For the same compound, in test [3], the Gastric damage index was 45.4 mm and the inhibition in vivo at 100 mg/kg was 40%.
As for `CN(C(Cc1ccc(OS(=O)(=O)c2cccc3cnccc23)cc1)CN1CCC(c2ccccc2)CC1)S(=O)(=O)c1cccc2cnccc12` (stereo not shown) [(10), N-{1-(p-(5-isoquinolinesulfonyloxy)benzyl]-2-(4-phenylpiperidino)ethyl}-N-methyl-5-isoquinoline sulfonamide], in test [1], the “pH of gastric juice” value was found to be 1.8, the “Amount of gastric juice” value came to 2.4 ml/100 g body weight, the Free hydrochloric acid worked out at 68 μEq/100 g body weight and the Total acidity is listed as 102 μEq/100 g body weight. The same compound had a Gastric damage index in test [2] (100 mg/kg oral) of 11.2 mm. The inhibition in vivo at 100 mg/kg in test [2] (setting [7]) is 29%. In test [3], the Gastric damage index amounted to 48.3 mm and the inhibition in vivo at 100 mg/kg turned out to be 37%.
Regarding `CN(C(Cc1ccc(O)cc1)CN1CCC(c2ccccc2)CC1)S(=O)(=O)c1cccc2cnccc12` (stereo not shown) [(11), N-[1-(p-hydroxybenzyl)-2-(4-phenylpiperidino)ethyl]-N-methyl-5-isoquinoline sulfonamide], in test [1], the “pH of gastric juice” value worked out at 2.5, the “Amount of gastric juice” value was found to be 1.5 ml/100 g body weight, the Free hydrochloric acid amounted to 36 μEq/100 g body weight and the Total acidity is reported as 65 μEq/100 g body weight. The Gastric damage index in test [2] (100 mg/kg oral) is on record as 6.8 mm. Moreover, in test [2] (setting [7]), the inhibition in vivo at 100 mg/kg is 57%. For the same compound, in test [3], the Gastric damage index is 27.3 mm and the inhibition in vivo at 100 mg/kg worked out at 64%.
Regarding `O=C(C(Cc1ccc(OS(=O)(=O)c2cccc3cnccc23)cc1)NS(=O)(=O)c1cccc2cnccc12)N1CCN(c2ccccc2)CC1` (stereo not shown) [(12), N-[N,O-bis(5-isoquinolinesulfonyl)tyrosyl]-4-phenylpiperizine], in test [1], the “pH of gastric juice” value is 2.1, the “Amount of gastric juice” value is on record as 2.2 ml/100 g body weight, the Free hydrochloric acid was 41 μEq/100 g body weight and the Total acidity turned out to be 80 μEq/100 g body weight. The compound also registered a Gastric damage index in test [2] (100 mg/kg oral) of 9.4 mm. Besides, the inhibition in vivo at 100 mg/kg in test [2] (setting [7]) came out at 40%. Further, in test [3], the Gastric damage index was found to be 43.5 mm and the inhibition in vivo at 100 mg/kg was found to be 43%.
